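1) Cells in 96-well plates. 2) Compound, 48 h, 5 concentrations. 3) Linear interpolation between surrounding doses. 4) Unreached endpoint = highest concentration. Abbreviation: GI50, concentration required for 50% inhibition of growth.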 The source made the active and inactive calls. Rule as the data show it: active = GI50 up to about 1.1 µM and inactive = higher.
Legend:
Experiment in all cases: NCI tumour cell line growth inhibition, 48 h
COLO 205 = test system: COLO 205
CCRF-CEM = test system: CCRF-CEM
SF-295 = test system: SF-295
PC-3 = test system: PC-3
SF-268 = test system: SF-268
HOP-62 = test system: HOP-62
NCI-H522 = test system: NCI-H522
MDA-N = test system: MDA-N
EKVX = test system: EKVX
DU-145 = test system: DU-145
HCT-15 = test system: HCT-15
HCC 2998 = test system: HCC 2998
SK-MEL-5 = test system: SK-MEL-5
CAKI-1 = test system: CAKI-1
Malme-3M = test system: Malme-3M
K562 = test system: K562
OVCAR-8 = test system: OVCAR-8
OVCAR-3 = test system: OVCAR-3
TK-10 = test system: TK-10
UACC-62 = test system: UACC-62
SR = test system: SR
Hs-578T = test system: Hs-578T
HT-29 = test system: HT-29
NCI-H23 = test system: NCI-H23
A549 = test system: A549
MDA-MB-435 = test system: MDA-MB-435
U-251 = test system: U-251
SN12C = test system: SN12C
SNB-19 = test system: SNB-19
KM12 = test system: KM12
MCF7 = test system: MCF7
NCI-H460 = test system: NCI-H460
SK-OV-3 = test system: SK-OV-3
NCI-H226 = test system: NCI-H226
OVCAR-5 = test system: OVCAR-5
MOLT-4 = test system: MOLT-4
ACHN = test system: ACHN
MDA-MB-231 = test system: MDA-MB-231
HL-60 = test system: HL-60
OVCAR-4 = test system: OVCAR-4
SK-MEL-2 = test system: SK-MEL-2
IGROV-1 = test system: IGROV-1
T47D = test system: T47D
RXF 393 = test system: RXF 393
HOP-92 = test system: HOP-92
UACC-257 = test system: UACC-257
UO-31 = test system: UO-31
SW-620 = test system: SW-620
BT-549 = test system: BT-549
A498 = test system: A498
NCI/ADR-RES = test system: NCI/ADR-RES
SF-539 = test system: SF-539
SK-MEL-28 = test system: SK-MEL-28
M14 = test system: M14
LOX IMVI = test system: LOX IMVI
HCT-116 = test system: HCT-116
SNB-75 = test system: SNB-75
786-0 = test system: 786-0
RPMI-8226 = test system: RPMI-8226

Q: Which results are given for NNC(N)Nc1ccccc1 (stereo not drawn)?
A: GI50 (COLO 205): > 100 µM (inactive); GI50 (CCRF-CEM): > 100 µM (inactive); GI50 (SF-295): > 100 µM (inactive); GI50 (PC-3): > 100 µM (inactive); GI50 (SF-268): > 100 µM (inactive); GI50 (HOP-62): > 100 µM (inactive); GI50 (NCI-H522): > 100 µM (inactive); GI50 (MDA-N): > 100 µM (inactive); GI50 (EKVX): > 100 µM (inactive); GI50 (DU-145): > 100 µM (inactive); GI50 (HCT-15): > 100 µM; GI50 (HCC 2998): > 100 µM (inactive); GI50 (SK-MEL-5): > 100 µM (inactive); GI50 (CAKI-1): > 100 µM (inactive); GI50 (Malme-3M): > 100 µM (inactive); GI50 (K562): > 100 µM (inactive); GI50 (OVCAR-8): > 100 µM (inactive); GI50 (OVCAR-3): > 100 µM (inactive); GI50 (TK-10): > 100 µM (inactive); GI50 (UACC-62): > 100 µM (inactive); GI50 (SR): > 100 µM (inactive); GI50 (Hs-578T): > 100 µM (inactive); GI50 (HT-29): > 100 µM (inactive); GI50 (NCI-H23): > 100 µM (inactive); GI50 (A549): > 100 µM (inactive); GI50 (MDA-MB-435): > 100 µM (inactive); GI50 (U-251): > 100 µM (inactive); GI50 (SN12C): > 100 µM (inactive); GI50 (SNB-19): > 100 µM (inactive); GI50 (KM12): > 100 µM (inactive); GI50 (MCF7): > 100 µM (inactive); GI50 (NCI-H460): > 100 µM (inactive); GI50 (SK-OV-3): > 100 µM (inactive); GI50 (NCI-H226): > 100 µM (inactive); GI50 (OVCAR-5): > 100 µM (inactive); GI50 (MOLT-4): > 100 µM (inactive); GI50 (ACHN): > 100 µM (inactive); GI50 (MDA-MB-231): > 100 µM (inactive); GI50 (HL-60): > 100 µM (inactive); GI50 (OVCAR-4): > 100 µM (inactive); GI50 (SK-MEL-2): > 100 µM (inactive); GI50 (IGROV-1): > 100 µM (inactive); GI50 (T47D): > 100 µM (inactive); GI50 (RXF 393): > 100 µM (inactive); GI50 (HOP-92): > 100 µM (inactive); GI50 (UACC-257): > 100 µM (inactive); GI50 (UO-31): > 100 µM (inactive); GI50 (SW-620): > 100 µM (inactive); GI50 (BT-549): > 100 µM (inactive); GI50 (A498): > 100 µM (inactive); GI50 (NCI/ADR-RES): > 100 µM (inactive); GI50 (SF-539): > 100 µM (inactive); GI50 (SK-MEL-28): > 100 µM (inactive); GI50 (M14): > 100 µM (inactive)

Q: Which results are given for CCCCCC/C=C\CCCCCCCCCC1=C(CN2CCN(C)CC2)C(=O)C=C(OC)C1=O?
A: GI50 (LOX IMVI): 3.8 µM (inactive); GI50 (COLO 205): 1.71 µM (inactive); GI50 (CCRF-CEM): 0.465 µM (active); GI50 (SF-295): 6.3 µM (inactive); GI50 (PC-3): 2.37 µM (inactive); GI50 (SF-268): 5.61 µM (inactive); GI50 (HOP-62): 15.6 µM (inactive); GI50 (NCI-H522): 1.55 µM (inactive); GI50 (MDA-N): 8.05 µM (inactive); GI50 (HCT-116): 2.14 µM (inactive); GI50 (EKVX): 13.6 µM (inactive); GI50 (DU-145): 13.4 µM (inactive); GI50 (HCT-15): 2.47 µM; GI50 (HCC 2998): 7.6 µM (inactive); GI50 (SK-MEL-5): 6.75 µM (inactive); GI50 (CAKI-1): 2.73 µM (inactive); GI50 (Malme-3M): 2.79 µM (inactive); GI50 (K562): 2.24 µM (inactive); GI50 (OVCAR-8): 4.53 µM (inactive); GI50 (OVCAR-3): 6.76 µM (inactive); GI50 (TK-10): 2.92 µM (inactive); GI50 (UACC-62): 12.9 µM (inactive); GI50 (SR): 0.0578 µM (active); GI50 (Hs-578T): 6.03 µM (inactive); GI50 (HT-29): 7.28 µM (inactive); GI50 (NCI-H23): 4.57 µM (inactive); GI50 (A549): 3.83 µM (inactive); GI50 (SNB-75): 1.62 µM (inactive); GI50 (MDA-MB-435): 8.65 µM (inactive); GI50 (SN12C): 4.37 µM (inactive); GI50 (SNB-19): 11.8 µM (inactive); GI50 (KM12): 6.47 µM (inactive); GI50 (MCF7): 4.3 µM (inactive); GI50 (NCI-H460): 5.73 µM (inactive); GI50 (SK-OV-3): 13.2 µM (inactive); GI50 (786-0): 1.67 µM (inactive); GI50 (RPMI-8226): 2 µM (inactive); GI50 (NCI-H226): 14.2 µM (inactive); GI50 (OVCAR-5): 15.2 µM (inactive); GI50 (MOLT-4): 0.353 µM (active); GI50 (ACHN): 3.28 µM (inactive); GI50 (MDA-MB-231): 9.53 µM (inactive); GI50 (HL-60): 0.881 µM (active); GI50 (OVCAR-4): 1.76 µM (inactive); GI50 (IGROV-1): 5.93 µM (inactive); GI50 (T47D): 2.28 µM (inactive); GI50 (RXF 393): 2.29 µM (inactive); GI50 (HOP-92): 2.64 µM (inactive); GI50 (UACC-257): 13.3 µM (inactive); GI50 (UO-31): 3.03 µM (inactive); GI50 (SW-620): 1.59 µM (inactive); GI50 (BT-549): 3.87 µM (inactive); GI50 (A498): 17.5 µM (inactive); GI50 (NCI/ADR-RES): 3.58 µM (inactive); GI50 (SF-539): 15.4 µM (inactive); GI50 (SK-MEL-28): 13.6 µM (inactive); GI50 (M14): 2.51 µM (inactive)

Q: Which results are given for Cc1ccc(Nc2nnc3n2S(=O)(=O)c2cc(C)c(Cl)cc2S3)cc1?
A: GI50 (LOX IMVI): 6.14 µM (inactive); GI50 (SF-295): 3.22 µM (inactive); GI50 (PC-3): 4.39 µM (inactive); GI50 (SF-268): 4.25 µM (inactive); GI50 (HOP-62): 6.35 µM (inactive); GI50 (NCI-H522): 2.18 µM (inactive); GI50 (MDA-N): 1.7 µM (inactive); GI50 (HCT-116): 6.37 µM (inactive); GI50 (EKVX): 25.4 µM (inactive); GI50 (DU-145): 8.09 µM (inactive); GI50 (HCT-15): 5.05 µM; GI50 (HCC 2998): 18.2 µM (inactive); GI50 (SK-MEL-5): 3.6 µM (inactive); GI50 (CAKI-1): 23 µM (inactive); GI50 (K562): 3.4 µM (inactive); GI50 (OVCAR-8): 12.6 µM (inactive); GI50 (OVCAR-3): 2 µM (inactive); GI50 (TK-10): 35.2 µM (inactive); GI50 (SR): 2.4 µM (inactive); GI50 (Hs-578T): 2.89 µM (inactive); GI50 (HT-29): 10.3 µM (inactive); GI50 (NCI-H23): 8.95 µM (inactive); GI50 (A549): 8.39 µM (inactive); GI50 (SNB-75): 6.93 µM (inactive); GI50 (MDA-MB-435): 3.64 µM (inactive); GI50 (U-251): 4.66 µM (inactive); GI50 (KM12): 6.56 µM (inactive); GI50 (MCF7): 5.26 µM (inactive); GI50 (NCI-H460): 7.23 µM (inactive); GI50 (786-0): 10.3 µM (inactive); GI50 (RPMI-8226): 18.4 µM (inactive); GI50 (NCI-H226): 10.7 µM (inactive); GI50 (OVCAR-5): 14.1 µM (inactive); GI50 (MOLT-4): 4.25 µM (inactive); GI50 (ACHN): 27.9 µM (inactive); GI50 (MDA-MB-231): 13.4 µM (inactive); GI50 (HL-60): 3.48 µM (inactive); GI50 (OVCAR-4): 22.8 µM (inactive); GI50 (SK-MEL-2): 3.91 µM (inactive); GI50 (IGROV-1): 4.4 µM (inactive); GI50 (T47D): 17.7 µM (inactive); GI50 (RXF 393): 10.5 µM (inactive); GI50 (HOP-92): 4.89 µM (inactive); GI50 (UACC-257): 34.5 µM (inactive); GI50 (UO-31): 17.3 µM (inactive); GI50 (SW-620): 14.5 µM (inactive); GI50 (BT-549): 5.28 µM (inactive); GI50 (A498): 15.4 µM (inactive); GI50 (NCI/ADR-RES): 16.1 µM (inactive); GI50 (SF-539): 3.77 µM (inactive); GI50 (SK-MEL-28): 19.6 µM (inactive); GI50 (M14): 7.14 µM (inactive)

Reference: ChEMBL document CHEMBL1201862, “PubChem BioAssay data set” (2004)
